Results published in US12011422B2, “Synthetic antibacterial compounds and uses thereof” (priority 2021, dated 2024).
Values after ≈ are worked out from the molar mass of the structure shown.

What was measured:
Pore-TolC E. coli = test: MIC determination (CLSI broth microdilution) against Pore-TolC E. coli; assay type: cell-based, Escherichia coli; conditions: for Pore-TolC E. coli MIC: 37° C., 18 hours, lowest concentration showing <10% bacterial growth; for MIC: Escherichia coli, 18 h, read-out: Pore-TolC E. coli MIC, Pore-TolC E. coli, 37° C., lowest concentration showing <10% bacterial growth
Description: (§1) The protocol for MIC determination is based on the Clinical & Laboratory Standards Institute (CLSI) guidelines. MICs are determined by setting up 96-well microtiter plates with serially diluted concentrations in DMSO or water ranging from 0-256 μg/mL for each compound of the invention (e.g., 256 μg/mL, 128 μg/mL, 64 μg/mL, 32 μg/mL, 16 μg/mL, 8 μg/mL, 4 μg/mL, 2 μg/mL, 1 μg/mL, etc.). The total volume in each plate is about 200 μL, with 2 μL of each serial dilution added to each well. Clinical isolates of various bacteria are obtained from the American Type Culture Collection (ATCC) and colony-resuspended for MIC testing as per CLSI guidelines. Plates are incubated at 37° C. for 18 hours, and optical density is read on a Tecan M1000 Infinite Pro plate reader at 600 nm. At least 3 replicates are done for each query compound. The MIC for each compound is the lowest compound concentration showing <10% bacterial growth.
(§2) The protocol as described in Example 2 was used to determine the minimal inhibitory concentration (MIC) of each of the following compounds against a strain of S. aureus and Pore-TolC E. coli.

a strain of S. aureus = test: MIC determination (CLSI broth microdilution) against S. aureus; assay type: cell-based, Staphylococcus aureus; conditions: 37° C., lowest concentration showing <10% bacterial growth; for MIC: Staphylococcus aureus, 18 h, read-out: Staph MIC; for Staph MIC: 18 hours
Description: as §1, §2

E. coli = test: Checkerboard broth microdilution (FICI) in combination with Colistin against E. coli; assay type: cell-based, Escherichia coli; conditions: combined with Colistin (0-0.5 μg/mL) against E. coli; compound 0-32 μg/mL; FICI <= 0.5 is synergy
Text: In some embodiments, a compound of the invention and another antibacterial agent are synergistic. In some embodiments, a fractional inhibitory concentration (FIC) index calculation (shown below) is used to show synergy of a compound of the invention and another antibacterial agent.
FICother antibacterial agent=[other antibacterial agent]/MICother antibacterial agent, where [other antibacterial agent] is the lowest inhibitory concentration of the other antibacterial agent in the presence of a compound of the invention.
The FIC index (FICI) is the sum of the FICcompound of the invention and FICother antibacterial agent. Drug-Drug interactions having an FICI of less than or equal to 0.5 are deemed synergistic. In some embodiments, a compound of the invention and another antibacterial agent have a FICI of about 0.5, about 0.4, about 0.3, about 0.2, about 0.1 or about 0. […]
The effect of another antibacterial agent on the activity of the compounds of the invention is evaluated. […] Fractional inhibitory concentration indices (FICIs) are determined by setting up standard checkerboard broth microdilution assays in 96-well microtiter plates with serially diluted 8 (or 10) concentrations of each drug (disclosed compounds and the other antibacterial agent). […] Plates are incubated at 37° C. for 18 hours, and optical density is read on a Tecan M1000 Infinite Pro plate reader at 600 nm. […]

Structure (SMILES) | Pore-TolC E. coli MIC (Pore-TolC E. coli) [mg/L] | MIC (a strain of S. aureus) [mg/L] | FICI (E. coli) | MIC (Pore-TolC E. coli) [mg/L] | Staph MIC (a strain of S. aureus) [mg/L]
CC(C)=CCC/C(C)=C/Cc1c(O)cc(-c2cncnc2)cc1O [MLAP-1913] | 2 | 8 (≈ 24.7 µM) | – | – | –
CC(C)=CCC/C(C)=C/Cc1c(O)cc(C)cc1O [MLEB-1850] | – | 8 (≈ 30.7 µM) | < 0.5 | 2 (≈ 7.68 µM) | –
CC(C)=CCC/C(C)=C/Cc1c(O)cccc1O [MLEB-1864] | – | 4 (≈ 16.2 µM) | – | 1 (≈ 4.06 µM) | –
CC(C)=CCC/C(C)=C/Cc1c(O)cc(Br)cc1O [MLEB-1917] | 0.5 | 4 (≈ 12.3 µM) | < 0.375 | – | –
CC(=O)c1ccc(-c2cc(O)c(C/C=C(\C)CCC=C(C)C)c(O)c2)cc1 [MLEB-1996] | – | 32 (≈ 87.8 µM) | – | > 32 | –
CC(C)=CCC/C(C)=C/Cc1c(O)cc(-c2cccc(C)c2C)cc1O [MLEB-1997] | – | 2 (≈ 5.71 µM) | – | 1 (≈ 2.85 µM) | –
CC(C)=CCC/C(C)=C/Cc1c(O)cc(-c2ccc(C)cc2)cc1O [MLEB-1998] | – | 4 (≈ 11.9 µM) | – | 1 (≈ 2.97 µM) | –
CC(C)=CCC/C(C)=C/Cc1c(O)cc(-c2ccc(C(F)(F)F)cc2)cc1O [MLEB-1999] | – | 1 (≈ 2.56 µM) | – | 2 (≈ 5.12 µM) | –
CC(C)=CCC/C(C)=C/Cc1c(O)cc(-c2ccc(Cl)cc2)cc1O [MLEB-19100] | – | 2 (≈ 5.6 µM) | – | 2 (≈ 5.6 µM) | –
CC(C)=CCC/C(C)=C/Cc1c(O)cc(-c2cccc(C(F)(F)F)c2)cc1O [MLEB-19101] | 1 | – | – | – | 2
CC(C)=CCC/C(C)=C/Cc1c(O)cc(-c2cc(C(F)(F)F)ccc2F)cc1O [MLEB-19102] | – | 2 (≈ 4.9 µM) | – | 2 (≈ 4.9 µM) | –
CC(C)=CCC/C(C)=C/Cc1c(O)cc(-c2cccc(C=O)c2)cc1O [MLEB-19108] | – | 8 (≈ 22.8 µM) | – | – | –
CC(C)=CCC/C(C)=C/Cc1c(O)cc(-c2cnc3ccccc3c2)cc1O [MLEB-19109] | – | 32 (≈ 85.7 µM) | – | 32 (≈ 85.7 µM) | –
CC(C)=CCC/C(C)=C/Cc1c(O)cc(-c2ccc(C=O)cc2)cc1O [MLEB-19110] | – | 8 (≈ 22.8 µM) | – | – | –
CC(C)=CCC/C(C)=C/Cc1c(O)cc(-c2cccc(C(F)(F)F)c2)cc1O [MLEB-19112] | – | 1 (≈ 2.56 µM) | – | 1 (≈ 2.56 µM) | –
CC(C)=CCC/C(C)=C/Cc1c(O)cc(-c2c(F)cccc2F)cc1O [MLEB-19114] | – | 1 (≈ 2.79 µM) | – | 0.5 (≈ 1.39 µM) | –
CC(C)=CCC/C(C)=C/Cc1c(O)cc(-c2cccc(O)c2)cc1O [MLEB-19115] | – | 4 (≈ 11.8 µM) | – | 2 (≈ 5.91 µM) | –
CC(C)=CCC/C(C)=C/Cc1c(O)cc(Br)cc1O [MLEB-19116] | 4 | – | – | – | 8
CC(C)=CCC/C(C)=C/Cc1c(O)cc(-c2cnc(N)cn2)cc1O [MLEB-19117] | – | 4 (≈ 11.8 µM) | – | – | –
CC(C)=CCC/C(C)=C/Cc1c(O)cc(-c2cc(C(F)(F)F)cc(C(F)(F)F)c2)cc1O [MLEB-19118] | – | 1 (≈ 2.18 µM) | – | 8 (≈ 17.5 µM) | –

Structure (SMILES) | Pore-TolC E. coli MIC (Pore-TolC E. coli) [mg/L] | MIC (a strain of S. aureus) [mg/L] | FICI (E. coli) | MIC (Pore-TolC E. coli) [mg/L] | Staph MIC (a strain of S. aureus) [mg/L]
CC(C)=CCC/C(C)=C/Cc1c(O)cc(-c2c(C)noc2C)cc1O [MLEB-19120] | – | 2 (≈ 5.86 µM) | – | – | –
CC(C)=CCC/C(C)=C/Cc1c(O)cc(-c2ccccc2Cl)cc1O [MLEB-19121] | – | 0.5 (≈ 1.4 µM) | – | – | –
CC(C)=CCC/C(C)=C/Cc1c(O)cc(-c2ccncc2)cc1O [MLEB-19128] | – | 4 (≈ 12.4 µM) | – | 2 (≈ 6.18 µM) | –
CC(C)=CCC/C(C)=C/Cc1c(O)cc(-c2cncnc2)cc1O [MLEB-19129] | 8 | – | – | – | 16
CC(C)=CCC/C(C)=C/Cc1c(O)cc(-c2ccc(F)nc2)cc1O [MLEB-19130] | – | 2 (≈ 5.86 µM) | – | 2 (≈ 5.86 µM) | –
CC(C)=CCC/C(C)=C/Cc1c(O)cc(-c2ccc(C=O)cc2F)cc1O [MLEB-19131] | – | 2 (≈ 5.43 µM) | – | 2 (≈ 5.43 µM) | –
CC(C)=CCC/C(C)=C/Cc1c(O)cc(-c2cccc(Cl)c2)cc1O [MLEB-19132] | – | 1 (≈ 2.8 µM) | – | 1 (≈ 2.8 µM) | –
CC(C)=CCC/C(C)=C/Cc1c(O)cc(-c2cnccc2Cl)cc1O [MLEB-19133] | – | 4 (≈ 11.2 µM) | – | 2 (≈ 5.59 µM) | –
CC(C)=CCC/C(C)=C/Cc1c(O)cc(-c2cccc([N+](=O)[O-])c2)cc1O [MLEB-19134] | – | 1 (≈ 2.72 µM) | – | 1 (≈ 2.72 µM) | –
CC(C)=CCC/C(C)=C/Cc1c(O)cc(-c2ccnc(Cl)c2)cc1O [MLEB-19135] | – | 4 (≈ 11.2 µM) | – | 1 (≈ 2.79 µM) | –
CC(C)=CCC/C(C)=C/Cc1c(O)cc(-c2ccc(C#N)cc2)cc1O [MLEB-19136] | – | 4 (≈ 11.5 µM) | – | 2 (≈ 5.76 µM) | –
CC(C)=CCC/C(C)=C/Cc1c(O)cc(-c2cccnc2Cl)cc1O [MLEB-19137] | – | 1 (≈ 2.79 µM) | – | 1 (≈ 2.79 µM) | –
COc1ccc(-c2cc(O)c(C/C=C(\C)CCC=C(C)C)c(O)c2)cn1 [MLEB-19138] | – | 16 (≈ 45.3 µM) | – | – | –
CC(C)=CCC/C(C)=C/Cc1c(O)cc(-c2cnc(Cl)nc2)cc1O [MLEB-19139] | – | 16 (≈ 44.6 µM) | – | 4 (≈ 11.1 µM) | –
CC(C)=CCC/C(C)=C/Cc1c(O)cc(-c2ccc(C=O)o2)cc1O [MLEB-19161] | – | 4 (≈ 11.8 µM) | – | 4 (≈ 11.8 µM) | –
CC(C)=CCC/C(C)=C/Cc1c(O)cc(-c2ccc(C#N)s2)cc1O [MLEB-19162] | – | 2 (≈ 5.66 µM) | – | 4 (≈ 11.3 µM) | –
COc1ccc(-c2cc(O)c(C/C=C(\C)CCC=C(C)C)c(O)c2)cc1 [MLEB-19163] | – | 4 (≈ 11.3 µM) | – | 2 (≈ 5.67 µM) | –
CC(C)=CCC/C(C)=C/Cc1c(O)cc(-c2ccc(C=O)c(F)c2)cc1O [MLEB-19164] | – | 2 (≈ 5.43 µM) | – | 4 (≈ 10.9 µM) | –
CC(C)=CCC/C(C)=C/Cc1c(O)cc(-c2ccc([N+](=O)[O-])cc2)cc1O [MLEB-19165] | – | 2 (≈ 5.44 µM) | – | 1 (≈ 2.72 µM) | –
